Source: PubChem BioAssay (NCI)
Values joined by “and” are separate entries in the source; they are usually repeats but may differ in a detail not shown here. Identical values can stand only once.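 In this assay, cells in 96-well plates receive the compound at five concentrations for 48 hours. Endpoints are linearly interpolated between the surrounding concentrations. Abbreviation: GI50, concentration required for 50% inhibition of growth. TGI is the concentration that stops growth completely.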

Legend:
Test in all cases: DTP human tumour cell line panel, 48 h
BT-549 breast = tested on: BT-549 breast
HS 578T breast = tested on: HS 578T breast
MCF7 breast = tested on: MCF7 breast
MDA-MB-435 = tested on: MDA-MB-435
NCI/ADR-RES ovarian = tested on: NCI/ADR-RES ovarian
DMS 114 small cell lung = tested on: DMS 114 small cell lung
KM20L2 colon = tested on: KM20L2 colon
M19-MEL melanoma = tested on: M19-MEL melanoma
SNB-78 CNS = tested on: SNB-78 CNS
DMS 273 small cell lung = tested on: DMS 273 small cell lung

Compound	GI50 (BT-549 breast)	TGI (BT-549 breast)	GI50 (HS 578T breast)	TGI (HS 578T breast)	GI50 (MCF7 breast)	TGI (MCF7 breast)	GI50 (MDA-MB-435)	TGI (MDA-MB-435)	GI50 (NCI/ADR-RES ovarian)	TGI (NCI/ADR-RES ovarian)	TGI (DMS 114 small cell lung)	TGI (KM20L2 colon)	TGI (M19-MEL melanoma)	TGI (SNB-78 CNS)	TGI (DMS 273 small cell lung)
C=C1CC[C@@H]2[C@](C)(COC(C)=O)[C@H](OC(C)=O)CC[C@@]2(C)[C@@H]1CC(Nc1ccc(S(=O)(=O)Nc2nccc(C)n2)cc1)C1=CCOC1=O (some centres undefined)	2.3 µM	5.61 µM	6.65 µM	43 µM	2.27 µM	12.5 µM	2.92 µM	10.4 µM	2.94 µM	13.5 µM	–	–	–	–	–
Cc1nc2sc(C(=O)Nc3ccccc3)c(N)c2cc1C(=O)/C=C/c1ccccc1	1.71 µM	3.63 µM	2.79 µM	> 100 µM	1.53 µM	5.51 µM	1.54 µM	3.73 µM	–	–	–	–	–	–	–
CCc1cc(O)c(Cl)c(C)c1Cl	–	36 µM	–	67.7 µM	–	61.6 µM	–	30.1 µM	–	50.1 µM	–	–	–	–	–
Cc1ccc(NC(=O)/C(=N\Nc2ccc([N+](=O)[O-])cc2[N+](=O)[O-])C2C(=O)NC(=O)NC2=O)cc1	–	–	–	–	–	–	–	–	–	–	> 100 µM	> 100 µM	> 100 µM	> 100 µM	–
Clc1nc(Cl)c2c(ncn2C/C=C\Cn2cnc3c(Cl)nc(Cl)nc32)n1	1.61 µM	2.97 µM	1.44 µM	5.36 µM	1.45 µM	3.17 µM	1.93 µM	4.51 µM	2.69 µM	11.1 µM	–	–	–	–	–
O=NNc1nc(-c2cccnc2)nc2ccccc12	–	> 100 µM	–	> 100 µM	–	> 100 µM	–	–	–	> 100 µM	–	–	–	–	–
CC(=O)O[C@@H]1CC2C(C)(C)CCCC2(C)C2=C1C(=O)C(C(C)C)=CC2=O (some centres undefined)	0.621 µM	3.05 µM	1.79 µM	> 100 µM	1.05 µM	> 100 µM	0.481 µM	1.93 µM	2.96 µM	> 100 µM	–	–	–	–	–
Nc1cc(N)c(N)cc1N	–	–	2.01 µM	5.37 µM	1.79 µM	3.81 µM	0.296 µM	0.851 µM	2.24 µM	7.1 µM	–	–	–	–	–
CC(C)(C)c1ccc(S(=O)(=O)N[C@H]2CC[C@H]3[C@@H]4CCc5cc(OS(=O)(=O)O)ccc5[C@H]4CC[C@]23C)cc1	2.1 µM	4.2 µM	2.69 µM	7.27 µM	2.38 µM	5.9 µM	2.32 µM	5.9 µM	2.39 µM	7.03 µM	–	–	–	–	–
C=C(C)C(=O)O[C@H]1[C@H]2[C@H](OC(=O)[C@H]2C)[C@H](O)[C@@H](C)[C@@H]2C=CC(=O)[C@]21C	–	15.5 µM	–	32.5 µM	–	15.5 µM	–	7.28 µM	–	9.61 µM	–	–	–	–	–
CN(C)CCOc1ccc2c(c1)C/C(=C/c1ncc([N+](=O)[O-])n1C)C2=O	–	3.74 µM	–	> 49.6 µM	–	7.11 µM	–	11.5 µM	–	34.1 µM	–	–	–	–	–
COc1cc(-c2cn(-c3ccc(Cl)cc3)c(C)c2C(=O)C(F)(F)F)cc(OC)c1OC	46.8 µM	> 100 µM	> 100 µM	> 100 µM	24.6 µM	> 100 µM	> 100 µM	> 100 µM	> 100 µM	> 100 µM	–	–	–	–	–
CC(=O)[O-].CC(=O)[O-].[NH2-].[Pt+2].c1ccc2cnccc2c1	–	–	60.4 µM	> 100 µM	11.3 µM	42.8 µM	> 100 µM	> 100 µM	64.4 µM	> 100 µM	–	–	–	–	–
Oc1ccc(CCCCCCc2ccc(O)cc2)cc1	2.94 µM	18.7 µM	13.3 µM	37.4 µM	6.91 µM	22.3 µM	11.8 µM	26.9 µM	3.99 µM	17.4 µM	–	–	–	–	–
OCc1ccc(-c2nn(Cc3ccccc3)c3ccccc23)o1	17.3 µM and 22.7 µM	37.4 µM and 53 µM	17.8 µM and 15.9 µM	> 69.9 µM and 42.4 µM	4.08 µM and 1.69 µM	24.8 µM and 57.1 µM	17.2 µM and 18.7 µM	40.8 µM and 39.5 µM	19.2 µM and 11.5 µM	67.1 µM and 49.6 µM	–	–	–	–	–
CC(=O)Nc1ccc2c(c1)oc(=O)c1cc(NC(C)=O)ccc12	> 100 µM	> 100 µM	63.4 µM	> 100 µM	59.8 µM	> 100 µM	> 100 µM	> 100 µM	> 100 µM	> 100 µM	–	–	–	–	–
COc1c(N2CCN(CN3C(=O)C(=Nc4ccc(S(=O)(=O)Nc5ncccn5)cc4)c4ccccc43)C(C)C2)c(F)cc2c(=O)c(C(=O)O)cn(C3CC3)c12 (centres undefined)	19.6 µM	> 50 µM	> 50 µM	> 50 µM	16.5 µM	> 50 µM	> 50 µM	> 50 µM	23.2 µM	> 50 µM	–	–	–	–	–
CCCCCCCCCCCC[n+]1ccc(CCCCCCCCC)cc1	–	–	–	–	–	–	–	–	1.86 µM	3.62 µM	–	–	–	–	–
O=C(CCl)N1c2ccccc2Sc2c1ccc1ccccc21	1.3 µM	2.63 µM	4.17 µM	43.9 µM	2.52 µM	6.47 µM	2.41 µM	7.06 µM	2.74 µM	6.55 µM	–	–	–	–	–
CC1OC2CC(=O)OC2C2=C1C(=O)c1c(O)c3c(c(O)c1C2=O)C1CC(O)C3(O)C(C)O1 (centres undefined)	1.1 µM	2.32 µM	0.429 µM	2.92 µM	0.126 µM	0.366 µM	0.264 µM	0.591 µM	0.273 µM	0.917 µM	–	–	–	–	–
COC(=O)C1C2C=CC(C2)N1[C@@H](C)c1ccccc1 (some centres undefined)	–	–	–	–	–	–	–	–	–	–	–	> 100 µM	> 100 µM	> 100 µM	> 100 µM
O=C1CC[C@@H](S(=O)(=O)c2ccccc2)[C@@H](/C=C/c2ccccc2)O1	–	–	–	–	–	–	–	–	–	–	> 100 µM	> 100 µM	> 100 µM	–	–
COc1ccc(C2S/C(=C\c3ccc(O)cc3)C(=O)N2NC(=O)Cc2ccccc2)cc1 (centres undefined)	–	–	–	–	–	–	–	–	–	–	> 100 µM	–	> 100 µM	–	> 100 µM
Cc1cc(C(C#N)c2ccc(Cl)cc2)c(Cl)cc1NC(=O)c1cc(I)cc(I)c1O (centres undefined)	4.03 µM and 8.64 µM	11.8 µM and 23.4 µM	12 µM	34.4 µM	6.58 µM and 15.7 µM	23.8 µM and 32.4 µM	12 µM and 18.8 µM	31.6 µM and 42 µM	4.03 µM and 15.7 µM	28.9 µM and 54.2 µM	–	–	–	–	–
C[C@H]1[C@H](C)CC[C@]2(C(=O)O)CC[C@]3(C)C(=CC[C@@H]4[C@@]5(C)C/C(=C/c6cccnc6)[C@H](O)C(C)(C)[C@@H]5CC[C@]43C)[C@H]12	18.3 µM	> 100 µM	28.8 µM	> 100 µM	12.1 µM	> 100 µM	27.6 µM	> 100 µM	18.5 µM	68.5 µM	–	–	–	–	–
